Experimental data reported in patent US8546409B2, “Methods of treatment for solid tumors” (priority 2009, dated 2013).
“Also recorded” adds a separate entry of the source. Like-named read-outs stand apart in the source and are kept apart here.

Assays:
[1] = test system: EKVX; assay: NCI panel growth inhibition, EKVX; assay type: cell-based; conditions: Homo sapiens, Non-Small Cell Lung Cancer
Description: (§1) Compound I has also been tested in a battery of tumor cell assays known as the NCI panel.

[2] = test system: OVCAR-5; assay: NCI panel growth inhibition, OVCAR-5; assay type: cell-based; conditions: Homo sapiens, Ovarian
Description: as §1

[3] = test system: MDA-MB-435; assay: NCI panel growth inhibition, MDA-MB-435; assay type: cell-based; conditions: Homo sapiens, Breast Cancer
Description: as §1

[4] = test system: SK-MEL-5; assay: NCI panel growth inhibition, SK-MEL-5; assay type: cell-based; conditions: Homo sapiens, Melanoma
Description: as §1

[5] = test system: T47D; assay: Tumor cell culture growth, optical density at 459 nm (FIG. 7), T47D; assay type: cell-based; conditions: 5-10 micromolar
[6] = molecular target: T1, p110δ (Homo sapiens, UniProt O00329); assay: Cell-based p110δ assay: anti-FcεR1 stimulated CD63 movement to surface of basophils
T1 construct: endogenous in cells
Protocol: The p110α assay used SW3T3 cells stimulated by PDGF, and p110 kinase activity was measured by Akt phosphorylation. The p110β activity was measured by lysophosphatidic acid stimulation of Akt phosphorylation in mouse embryonic fibroblasts. The activity of p110δ was measured by anti-FcεR1 antibody cross linking stimulation of CD63 movement to the surface of basophils. Finally, the activity of p110γ was measured by fMLP stimulation of CD63 antigen movement to the cell surface of basophils.

[7] = test system: NCI panel cancer cell lines; assay: NCI panel of tumor cell assays, summary over cell lines; assay type: cell-based; conditions: for Cell line number: GI50 less than 2 micromolar
Description: Compound I has also been tested in a battery of tumor cell assays known as the NCI panel. […] Using this measure, 1.8% of cell lines were particularly sensitive to Compound B at this level, while 39% were particularly sensitive to Compound I at the same concentration. […] Loss of PTEN activity often occurs in cancers, and enhances the sensitivity of a tumor to PI3K inhibitors. […] The following Table summarizes the cell lines found to be sensitive to Compound I and the known mutations in those cell lines.

[8] = test system: OVCAR-8; assay: NCI panel growth inhibition, OVCAR-8; assay type: cell-based; conditions: Homo sapiens, Ovarian
Description: as §1

[9] = test system: SK-MEL-2; assay: NCI panel growth inhibition, SK-MEL-2; assay type: cell-based; conditions: Homo sapiens, Melanoma
Description: as §1

[10] = test system: OVCAR-3 xenografts; assay: Ovarian cancer cell xenografts in nu/nu mice (FIG. 8); assay type: in vivo; conditions: 30 mg/kg BID, 36 days, female nu/nu mice
Protocol: Female nu/nu mice bearing OVCAR-3 xenografts (human ovarian cancer cells) were maintained until tumor volume measured about 100 mm^3. At that point, treatment began with compound I at a rate of 30 mg/kg administered twice per day.

[11] = test system: ACHN; assay: NCI panel growth inhibition, ACHN; assay type: cell-based; conditions: Homo sapiens, Renal
Description: as §1

[12] = test system: IGROV1; assay: NCI panel growth inhibition, IGROV1; assay type: cell-based; conditions: Homo sapiens, IGROV-1, Ovarian
Description: as §1

[13] = test system: KM12; assay: NCI panel growth inhibition, KM12; assay type: cell-based; conditions: Homo sapiens, Colon Cancer
Description: as §1

[14] = test system: COLO 205; assay: NCI panel growth inhibition, COLO 205; assay type: cell-based; conditions: Homo sapiens, Colon Cancer
Description: as §1

[15] = test system: SF-539; assay: NCI panel growth inhibition, SF-539; assay type: cell-based; conditions: Homo sapiens, CNS Cancer
Description: as §1

[16] = test system: SK-MEL-28; assay: NCI panel growth inhibition, SK-MEL-28; assay type: cell-based; conditions: Homo sapiens, Melanoma
Description: as §1

[17] = test system: CAKI-1; assay: NCI panel growth inhibition, CAKI-1; assay type: cell-based; conditions: Homo sapiens, Renal
Description: as §1

[18] = test system: A549; assay: NCI panel growth inhibition, A549; assay type: cell-based; conditions: Homo sapiens, Non-Small Cell Lung Cancer
Description: as §1

[19] = test system: HCC-2998; assay: NCI panel growth inhibition, HCC-2998; assay type: cell-based; conditions: Homo sapiens, Colon Cancer
Description: as §1

[20] = test system: UACC-62; assay: NCI panel growth inhibition, UACC-62; assay type: cell-based; conditions: Homo sapiens, Melanoma
Description: as §1

[21] = test system: NCI-H522; assay: NCI panel growth inhibition, NCI-H522; assay type: cell-based; conditions: Homo sapiens, Non-Small Cell Lung Cancer
Description: as §1

[22] = test system: U251; assay: NCI panel growth inhibition, U251; assay type: cell-based; conditions: Homo sapiens, U-251, CNS Cancer
Description: as §1

[23] = test system: SNB-75; assay: NCI panel growth inhibition, SNB-75; assay type: cell-based; conditions: Homo sapiens, CNS Cancer
Description: as §1

[24] = test system: SN12C; assay: NCI panel growth inhibition, SN12C; assay type: cell-based; conditions: Homo sapiens, Renal
Description: as §1

[25] = molecular target: DNA-PK (Homo sapiens, UniProt P78527); assay: Inhibition of kinase activity of other lipid kinases, DNA-PK; assay type: biochemical; conditions: read-out: IC-50 for inhibition of kinase activity, DNA-PK
[26] = test system: SW-620; assay: NCI panel growth inhibition, SW-620; assay type: cell-based; conditions: Homo sapiens, Colon Cancer
Description: as §1

[27] = in vivo; conditions: rat, 60 mg/kg/day
Protocol: Compound I was dosed at 60, 120, or 240 mg/kg/day administered as a single dose for up to 14 days in healthy rats. […] The peak concentration of compound I (Cmax) and area under the curve (AUC) for tolerated doses were higher than those observed with effective doses of Compound I in the xenograft model tumors in mice.

[28] = test system: T-47D; assay: NCI panel growth inhibition, T-47D; assay type: cell-based; conditions: Homo sapiens, T47D, Breast Cancer
Description: as §1

[29] = test system: A498; assay: NCI panel growth inhibition, A498; assay type: cell-based; conditions: Homo sapiens, Renal
Description: as §1

[30] = test system: NCI-H460; assay: NCI panel growth inhibition, NCI-H460; assay type: cell-based; conditions: Homo sapiens, Non-Small Cell Lung Cancer
Description: as §1

[31] = test system: OVCAR-4; assay: NCI panel growth inhibition, OVCAR-4; assay type: cell-based; conditions: Homo sapiens, Ovarian
Description: as §1

[32] = test system: 786-0; assay: NCI panel growth inhibition, 786-0; assay type: cell-based; conditions: Homo sapiens, Renal
Description: as §1

T1 sequence (O00329 whole entry, species assumed): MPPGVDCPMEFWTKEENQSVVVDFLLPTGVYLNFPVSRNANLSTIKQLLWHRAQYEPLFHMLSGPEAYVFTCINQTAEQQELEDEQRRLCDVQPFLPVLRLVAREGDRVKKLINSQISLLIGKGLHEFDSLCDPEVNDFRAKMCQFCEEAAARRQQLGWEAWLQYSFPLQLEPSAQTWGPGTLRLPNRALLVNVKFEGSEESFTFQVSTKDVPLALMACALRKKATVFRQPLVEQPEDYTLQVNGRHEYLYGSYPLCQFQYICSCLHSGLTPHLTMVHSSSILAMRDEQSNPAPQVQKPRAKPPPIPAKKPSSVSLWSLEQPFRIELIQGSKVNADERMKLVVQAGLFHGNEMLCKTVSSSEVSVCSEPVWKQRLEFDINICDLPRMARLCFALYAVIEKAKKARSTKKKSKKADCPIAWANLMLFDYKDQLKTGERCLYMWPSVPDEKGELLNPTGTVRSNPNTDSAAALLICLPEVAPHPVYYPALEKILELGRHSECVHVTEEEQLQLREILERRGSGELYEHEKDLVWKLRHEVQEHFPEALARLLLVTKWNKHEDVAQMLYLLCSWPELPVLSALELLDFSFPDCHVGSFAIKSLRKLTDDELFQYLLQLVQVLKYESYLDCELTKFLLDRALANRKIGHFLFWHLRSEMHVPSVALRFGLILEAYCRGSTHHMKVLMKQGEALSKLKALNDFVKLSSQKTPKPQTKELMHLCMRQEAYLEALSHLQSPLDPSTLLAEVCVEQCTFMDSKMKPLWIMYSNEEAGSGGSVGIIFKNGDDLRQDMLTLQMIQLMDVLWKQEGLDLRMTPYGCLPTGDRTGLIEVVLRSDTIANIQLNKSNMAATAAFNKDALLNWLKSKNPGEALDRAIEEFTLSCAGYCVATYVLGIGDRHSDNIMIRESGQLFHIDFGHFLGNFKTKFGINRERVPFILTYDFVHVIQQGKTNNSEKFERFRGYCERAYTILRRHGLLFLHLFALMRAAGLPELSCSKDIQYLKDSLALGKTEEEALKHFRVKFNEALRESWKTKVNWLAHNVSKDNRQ
T1 sequence (P27986 whole entry partner, species assumed): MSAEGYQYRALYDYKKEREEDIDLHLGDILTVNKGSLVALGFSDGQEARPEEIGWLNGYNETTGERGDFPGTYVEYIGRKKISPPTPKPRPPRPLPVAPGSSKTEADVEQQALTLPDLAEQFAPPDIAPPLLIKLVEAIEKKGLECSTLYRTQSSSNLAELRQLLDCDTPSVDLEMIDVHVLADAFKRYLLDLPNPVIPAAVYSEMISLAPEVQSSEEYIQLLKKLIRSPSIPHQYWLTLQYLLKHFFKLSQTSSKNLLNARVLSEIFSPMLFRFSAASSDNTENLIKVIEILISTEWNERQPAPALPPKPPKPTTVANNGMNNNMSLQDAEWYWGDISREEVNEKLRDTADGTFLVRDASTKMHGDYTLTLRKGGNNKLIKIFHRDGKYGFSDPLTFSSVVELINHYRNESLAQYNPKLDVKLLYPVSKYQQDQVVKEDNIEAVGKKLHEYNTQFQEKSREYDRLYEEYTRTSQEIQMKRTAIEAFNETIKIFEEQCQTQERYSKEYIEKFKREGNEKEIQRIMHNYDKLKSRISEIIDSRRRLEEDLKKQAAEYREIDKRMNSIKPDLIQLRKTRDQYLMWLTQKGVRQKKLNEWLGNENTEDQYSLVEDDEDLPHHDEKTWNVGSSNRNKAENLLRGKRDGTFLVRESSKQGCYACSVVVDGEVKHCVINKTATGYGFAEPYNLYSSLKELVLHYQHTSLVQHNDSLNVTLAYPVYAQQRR

**Q.** What does the source list for `C[C@H](Nc1ncnc2[nH]cnc12)c1nc2ccc(F)cc2c(=O)n1-c1ccccc1` [Compound I]?
**A.** GI50 [1]: 16.7 µM; GI50 [2]: 27.7 µM; GI50 [3]: 43.1 µM; GI50 [4]: 31.3 µM; Inhibition of tumor cell culture growth [5]: strong inhibition of growth; EC50 ([6]; FB, read-out: Cell-based assay EC50 p110δ, FB): 0.0084 µM; EC50 ([6]; WB, read-out: Cell-based assay EC50 p110δ, WB): 0.019 µM; % EC50 < 2 μM ([7]; Breast): 62%; Cell line number ([7]; Breast): 5/8; % EC50 < 2 μM ([7]; CNS): 50%; Cell line number ([7]; CNS): 3/6; % EC50 < 2 μM ([7]; Colon): 14%; Cell line number ([7]; Colon): 1/7; % EC50 < 2 μM ([7]; Melanoma): 12%; Cell line number ([7]; Melanoma): 1/8; Cell lines with mutations in PTEN inhibited ([7]; NCI panel cell lines known to have PTEN mutations): 70%; % EC50 < 2 μM ([7]; NSCLC): 11%; Cell line number ([7]; NSCLC): 1/9; % EC50 < 2 μM ([7]; Ovarian): 33%; Cell line number ([7]; Ovarian): 2/6; Cell line number ([7]; Prostate): 2/2; % EC50 < 2 μM ([7]; Prostrate): 100%; % EC50 < 2 μM ([7]; Renal): 75%; Cell line number ([7]; Renal): 6/8; Cell lines particularly sensitive (GI50 of 2 micromolar or less) ([7]; all NCI panel cell lines): 39%; GI50 [8]: 44.6 µM; GI50 [9]: 100 µM; Tumor volume of OVCAR-3 xenograft [10]: the size of the existing tumor was actually reduced; also recorded: completely inhibited growth; also recorded: Tumor volume actually decreased; GI50 [11]: 10.7 µM; GI50 [12]: 2.7 µM; GI50 [13]: 2 µM; GI50 [14]: 33.8 µM; GI50 [15]: 15.9 µM; GI50 [16]: 12.8 µM; GI50 [17]: 1.01 µM; GI50 [18]: 20.7 µM; GI50 [19]: 32.4 µM; GI50 [20]: 1.43 µM; GI50 [21]: 51.8 µM; GI50 [22]: 59.6 µM; GI50 [23]: 0.0594 µM; GI50 [24]: 22.5 µM; IC50 [25]: 13 µM; GI50 [26]: 69.3 µM; AUC [27]: 58000 ng·h/mL; Cmax [27]: 7300 ng/mL; GI50 [28]: 0.571 µM; GI50 [29]: 0.615 µM; GI50 [30]: 25.7 µM; GI50 [31]: 100 µM; GI50 [32]: 1.99 µM
